Test results reported in patent US20160311788A1, “Antifouling Compounds And Use Thereof” (National University of Singapore, priority 2008, published 2016).
In brackets after ≈: the same amount, converted by molar mass. Read-outs that look alike come from different tables or passages of the source.

Key:
[1] = tested on: marine bacteria strain S1; assay: disc inhibition assay, strain S1; format: cell-based, Rhodovulum iodosum; details: strain 1, 50 μg of compound per disc
Summary of the method: (§1)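 Zone-of-inhibition diameters (caliper, n=2 averaged) were recorded after overnight dark incubation at 35° C. Test discs of 6 mm bore 50 μg compound delivered in DMSO, placed on lawns of the marine strain grown in marine broth and spread on Marine Agar; solvent discs served as controls.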

[2] = tested on: marine bacteria strain S3; assay: disc inhibition assay, strain S3; format: cell-based, Erythrobacter aquimaris; details: for zone of inhibition at 50 µg/disc: Qipengyuania aquimaris, S3, 24 h
Summary of the method: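 Antibacterial susceptibility was measured by agar disc diffusion. Compounds dissolved in DMSO were applied to 6 mm sterile discs and laid on Marine Agar lawns of a Singapore coastal marine bacterium cultured in marine broth. After overnight dark incubation at 35° C, clearing zone diameters were measured with Vernier calipers, and the two replicates were averaged.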

[3] = tested on: marine bacteria strain S4; assay: disc inhibition assay, strain S4; format: cell-based, Bacillus algicola; details: for zone of inhibition at 50 µg/disc: Guptibacillus algicola, S4, 24 h
Summary of the method: as §1

[4] = tested on: marine bacteria strain S9; assay: disc inhibition assay, strain S9; format: cell-based, Bacillus algicola; details: for zone of inhibition at 50 µg/disc: Guptibacillus algicola, S9, 24 h
Summary of the method: as §1

[5] = tested on: marine bacteria strain S10; assay: disc inhibition assay, strain S10; format: cell-based, Halobacillus trueperi; details: for zone of inhibition at 50 µg/disc: Halobacillus trueperi, S10, 24 h
Summary of the method: as §1

[6] = tested on: marine bacteria strain S14; assay: disc inhibition assay, strain S14; format: cell-based, Vibrio probioticus; details: strain 14, 50 μg of compound per disc
[7] = tested on: marine bacteria strain S16; assay: disc inhibition assay, strain S16; format: cell-based, Pseudoalteromonas piscicida; details: for zone of inhibition at 50 µg/disc: Pseudoalteromonas piscicida, S16, 24 h
Summary of the method: as §1

[8] = tested on: marine bacteria strain S17; assay: disc inhibition assay, strain S17; format: cell-based, Gordonia terrae; details: for zone of inhibition at 50 µg/disc: Gordonia terrae, S17, 24 h
Summary of the method: as §1

[9] = tested on: marine bacteria strain S18; assay: disc inhibition assay, strain S18; format: cell-based, Microbacterium esteraromaticum; details: for zone of inhibition at 50 µg/disc: Microbacterium esteraromaticum, S18, 24 h
[10] = tested on: marine bacteria strain S27; assay: disc inhibition assay, strain S27; format: cell-based, Tenacibaculum lutimaris; details: for zone of inhibition at 50 µg/disc: Tenacibaculum lutimaris, S27, 24 h
Summary of the method: as §1

[11] = tested on: marine bacteria strain S28; assay: disc inhibition assay, strain S28; format: cell-based, Arthrobacter protophormial; details: for zone of inhibition at 50 µg/disc: Arthrobacter, S28, 24 h
Summary of the method: as §1

[12] = tested on: marine bacteria strain S29; assay: disc inhibition assay, strain S29; format: cell-based, Bacillus hwajinpoensis; details: for zone of inhibition at 50 µg/disc: Guptibacillus hwajinpoensis, S29, 24 h
Summary of the method: as §1

[13] = tested on: marine bacteria strain S30; assay: disc inhibition assay, strain S30; format: cell-based, Bacillus borophilicus; details: for zone of inhibition: strain 30, 50 μg of compound per disc
Summary of the method: as §1

[14] = tested on: Stage II nauplii of Balanus amphitrite; assay: barnacle toxicity assay; format: in vivo; details: for LD50: Table 3(a), concentration that caused 50% mortality, 22 to 24 hours, Stage II nauplii
Protocol: (§2) Pure compounds were suspended in DMSO and sonicated to obtain a stock solution of 50 mg ml^−1 in DMSO. This stock solution is stored at −20° C. in 4 ml amber screw cap vials. For the bioassays, a small volume of stock solution was added to 1 μm filtered seawater in a glass scintillation vial. This suspension was then sonicated around 10 minutes. Serial dilutions were generated to the required range of concentrations. Serial dilution of the equivalent amounts of DMSO in seawater was used as the control.
(§3) The barnacle bioassay method used follows from the method first introduced by Rittschof et al. (1992), and subsequently by other authors (Willemsen et al., 1998). This method is now standard practice for many antifouling screening of novel compounds.
Toxicity assays were modified from Rittschof et al. (1992). Stage II naupliar larvae used in tests were obtained from Balanus amphitrite adults collected from inter-tidal rock walls at Kranji mangrove, Singapore. Larvae were collected from a container of adults by attraction to a point source of light and transferred to 500 ml of fresh seawater. Next, larvae were re-concentrated with a fiber optic light and added to assays.
Duplicate assays were conducted in 2 ml glass vials (La Pha Pack® PN 11-14-0544) in 1 ml of filtered seawater for 22 to 24 hours. The assays were repeated for confirmation. There were two sets of controls, a blank control consisting of 3 tubes of seawater only, and DMSO control consisting of the equivalent dilution series with DMSO without compound). For the compounds, there were 3 tubes of each for each test concentration. The assay was initiated by addition of barnacle naupliar in 50 μl of seawater. After 22 to 24 hours of incubation at 25-27° C. solutions containing test animals were transferred to a Bogorov tray and scored as living or dead. Moribund larvae were scored as dead. Results were confirmed by repeating the assay. Data were combined and the concentration that caused 50% mortality (LD50) was calculated by probit analysis using a basic computer program (Libermann, 1983). If data were not appropriate for probit analysis, the LD50 was estimated from graphed data.

[15] = tested on: cyprids of Balanus amphitrite; assay: barnacle settlement assay; format: in vivo; details: for IC50: Amphibalanus amphitrite, 24 h, concentration that caused 50% settlement inhibition, 24 hours, cyprids
Protocol: as §2, §3
Barnacle settlement assays were based on methodology from Rittschof et al. (1992). Barnacle larvae from field-collected adults were reared on an algal mixture of 1:1 v/v of Tetraselmis suecica and Chaetoceros muelleri at 25° C., at approximately 5×10^5 cells per ml density. On this regime, larvae metamorphose to cyprids in 5 days. These cyprids were aged at 4° C. for 2-3 days, and 45-70% settlement after 24 hours (Willemsen et al., 1998).
Settlement tests were conducted in 7 ml neutral glass vials (Samco® T1 03N1) 34 mm by 23 mm diameter, with 20-40 cyprids per well. Test solutions were made up to twice the required final concentration. 0.5 ml of test solution was added into each well, and cyprids were transferred into each well in 0.5 ml of seawater. Assays were done in triplicate. As before, there were two sets of controls, a blank control consisting 3 tubes of seawater only, and DMSO control consisting of the equivalent dilution series with DMSO without compound. After 24 hours, larvae that had attached and metamorphosed were enumerated and the result expressed as percentage settlement. Larvae not attached were scored as not settled. The assays were repeated and the concentration that caused 50% settlement inhibition (ED50) was determined by pro bit analysis using a basic computer program (Lieberman, 1983), or by estimation from graphed data.

[16] = strain 16, 50 μg of compound per disc
[17] = strain 4, 50 μg of compound per disc
[18] = strain 9, 50 μg of compound per disc
[19] = strain 10, 50 μg of compound per disc
[20] = strain 17, 50 μg of compound per disc
[21] = strain 18, 50 μg of compound per disc
[22] = strain 27, 50 μg of compound per disc
[23] = strain 28, 50 μg of compound per disc
[24] = strain 29, 50 μg of compound per disc
[25] = strain 3, 50 μg of compound per disc, read-out: zone of inhibition
[26] = Table 3(a), read-out: ED50 (the source's name)
[27] = strain 4, 50 μg of compound per disc, read-out: zone of inhibition
[28] = strain 9, 50 μg of compound per disc, read-out: zone of inhibition
[29] = strain 3, 50 μg of compound per disc

CN(C)C(=O)C(CCN1CCC(O)(c2ccc(Cl)cc2)CC1)(c1ccccc1)c1ccccc1 [LOP, loperamide, reference compound]
zone of inhibition [1]: − | zone of inhibition at 50 µg/disc [2]: > 10 mm | zone of inhibition at 50 µg/disc [3]: 5 to 10 mm | zone of inhibition at 50 µg/disc [4]: 5 to 10 mm | zone of inhibition at 50 µg/disc [5]: 5 to 10 mm | zone of inhibition [6]: − | zone of inhibition [7, 16]: − | zone of inhibition at 50 µg/disc [8]: 5 to 10 mm | zone of inhibition at 50 µg/disc [9]: > 10 mm | zone of inhibition at 50 µg/disc [10]: 5 to 10 mm | zone of inhibition at 50 µg/disc [11]: 5 to 10 mm | zone of inhibition at 50 µg/disc [12]: 5 to 10 mm | zone of inhibition at 50 µg/disc ([13]; Bacillus, S30, 24 h): 2 to 5 mm | LD50 [14]: 1.56 µg/mL | IC50 ([15]; read-out: ED50, Table 3(a)): 0.37 µg/mL (≈ 0.776 µM)

CN(C)C(=O)C(c1ccccc1)c1ccccc1 [Compound 3.1, diphenamid, reference compound]
zone of inhibition [1]: − | zone of inhibition at 50 µg/disc [2]: 2 to 5 mm | zone of inhibition [3, 17]: − | zone of inhibition [4, 18]: − | zone of inhibition [5, 19]: − | zone of inhibition [6]: − | zone of inhibition [7, 16]: − | zone of inhibition [8, 20]: − | zone of inhibition [9, 21]: − | zone of inhibition [10, 22]: − | zone of inhibition [11, 23]: − | zone of inhibition [12, 24]: − | zone of inhibition [13]: − | LD50 [14]: > 50 µg/mL | IC50 ([15]; read-out: ED50, Table 3(a)): 15.1 µg/mL (≈ 63.1 µM)

O=C(C(c1ccccc1)c1ccccc1)N1CCC(O)(c2ccccc2)CC1 [Compound 4.5]
zone of inhibition [1]: − | zone of inhibition at 50 µg/disc [2, 25]: 5 to 10 mm | zone of inhibition [3, 17]: − | zone of inhibition [4, 18]: − | zone of inhibition [5, 19]: − | zone of inhibition [6]: − | zone of inhibition [7, 16]: − | zone of inhibition [8, 20]: − | zone of inhibition [9, 21]: − | zone of inhibition [10, 22]: − | zone of inhibition [11, 23]: − | zone of inhibition [12, 24]: − | zone of inhibition [13]: − | LD50 [14]: > 50 µg/mL | IC50 [15, 26]: 6.48 µg/mL (≈ 17.4 µM)

O=C(C(c1ccccc1)c1ccccc1)N1CCCCC1 [Compound 4.1, 2,2-Diphenyl-1-(piperidin-1-yl)ethanone]
zone of inhibition [1]: − | zone of inhibition at 50 µg/disc [2, 25]: 5 to 10 mm | zone of inhibition at 50 µg/disc [3, 27]: 2 to 5 mm | zone of inhibition at 50 µg/disc [4, 28]: 2 to 5 mm | zone of inhibition at 50 µg/disc ([5]; strain 10, 50 μg of compound per disc, read-out: zone of inhibition): 2 to 5 mm | zone of inhibition [6]: − | zone of inhibition [7, 16]: − | zone of inhibition at 50 µg/disc ([8]; strain 17, 50 μg of compound per disc, read-out: zone of inhibition): 2 to 5 mm | zone of inhibition at 50 µg/disc ([9]; strain 18, 50 μg of compound per disc, read-out: zone of inhibition): 2 to 5 mm | zone of inhibition at 50 µg/disc ([10]; strain 27, 50 μg of compound per disc, read-out: zone of inhibition): 2 to 5 mm | zone of inhibition at 50 µg/disc ([11]; strain 28, 50 μg of compound per disc, read-out: zone of inhibition): 2 to 5 mm | zone of inhibition [12, 24]: − | zone of inhibition [13]: − | LD50 [14]: > 50 µg/mL | naupliar toxicity in words ([14]; in vivo): no observable naupliar toxicity | anti-settlement activity in words [15]: displayed anti-settlement activity | IC50 [15, 26]: 2.35 µg/mL (≈ 8.41 µM)

CCCCC(CCCC)C(=O)N(C)C [Compound 12.3]
zone of inhibition [1]: − | zone of inhibition [2, 29]: − | zone of inhibition [3, 17]: − | zone of inhibition [4, 18]: − | zone of inhibition [5, 19]: − | zone of inhibition [6]: − | zone of inhibition [7, 16]: − | zone of inhibition [8, 20]: − | zone of inhibition [9, 21]: − | zone of inhibition [10, 22]: − | zone of inhibition [11, 23]: − | zone of inhibition at 50 µg/disc ([12]; strain 29, 50 μg of compound per disc, read-out: zone of inhibition): 2 to 5 mm | zone of inhibition [13]: − | LD50 [14]: > 50 µg/mL | IC50 [15, 26]: 2.76 µg/mL (≈ 13.8 µM)

OC1(c2ccc(Cl)cc2)CCNCC1 [Compound 3.4]
zone of inhibition [1]: − | zone of inhibition [2, 29]: − | zone of inhibition at 50 µg/disc [3, 27]: 2 to 5 mm | zone of inhibition at 50 µg/disc [4, 28]: 2 to 5 mm | zone of inhibition [5, 19]: − | zone of inhibition [6]: − | zone of inhibition at 50 µg/disc ([7]; strain 16, 50 μg of compound per disc, read-out: zone of inhibition): 2 to 5 mm | zone of inhibition [8, 20]: − | zone of inhibition [9, 21]: − | zone of inhibition [10, 22]: − | zone of inhibition [11, 23]: − | zone of inhibition [12, 24]: − | zone of inhibition [13]: − | LD50 [14]: 8.41 µg/mL | IC50 [15, 26]: 43.9 µg/mL (≈ 208 µM)

CN1CCC(O)(c2ccccc2)CC1 [Compound 4.4]
zone of inhibition [1]: − | zone of inhibition [2, 29]: − | zone of inhibition [3, 17]: − | zone of inhibition [4, 18]: − | zone of inhibition [5, 19]: − | zone of inhibition [6]: − | zone of inhibition at 50 µg/disc [7]: 2 to 5 mm | zone of inhibition [8, 20]: − | zone of inhibition [9, 21]: − | zone of inhibition [10, 22]: − | zone of inhibition [11, 23]: − | zone of inhibition [12, 24]: − | zone of inhibition [13]: − | LD50 [14]: 12.35 µg/mL | IC50 [15, 26]: 5.98 µg/mL (≈ 31.3 µM)
